Experimental data published in US9247759B2, “Identification of human T2R receptors that respond to bitter compounds that elicit the bitter taste in compositions, and the use thereof in assays to identify compounds that inhibit (block) bitter taste in compositions and use thereof” (SENOMYX, INC., priority 2007, dated 2016).
pIC50: −log10 of the molar value. Read-outs that look alike come from different tables or passages of the source.

Molecular target: hT2R14 (Homo sapiens (Human), UniProt Q9NYV8)
Assay: hT2R14 antagonist high-throughput FLIPR assay, stable cell line with G16g44, agonist aristolochic acid
Format: cell-based
Procedure: The inventors also used the automated fluorimetric […] system FLIPR using a slightly different protocol. A HEK293 cell line stably expressing G16gust44 was transfected with a hT2R expression plasmid, 24 hours later, the cells are loaded and analyzed on FLIPR.
After a ligand is identified for a particular hT2R, a HEK293 cell line stably expressing both the hT2R and G16gust44 are generated, facilitating future screening assays to identify other ligands that activate the particular hT2R or which modulate (block or enhance) the activation of this hT2R by another bitter ligand such as a bitter compound contained in coffee. This avoids the need for transient transfection.
To identify antagonists, cell lines stably expressing hT2R8 and hT2R14, respectively, together with the promiscuous chimeric G16g44 protein were generated as described in previous patent applications. A high-throughput assay was established using the stable cell lines and FLIPR (Fluorescent Imaging Plate Reader). An agonist of hT2R8 or hT2R14 was used to activate the receptors up to 70-80% of their respective maximal activity. For hT2R8, the agonist used was andrographolide (200 […]); for hT2R14, it was aristolochic acid (3 μM). To identify antagonists, compounds with diverse chemical structures were added together with the agonist.

hT2R14, sequence (Q9NYV8 whole entry): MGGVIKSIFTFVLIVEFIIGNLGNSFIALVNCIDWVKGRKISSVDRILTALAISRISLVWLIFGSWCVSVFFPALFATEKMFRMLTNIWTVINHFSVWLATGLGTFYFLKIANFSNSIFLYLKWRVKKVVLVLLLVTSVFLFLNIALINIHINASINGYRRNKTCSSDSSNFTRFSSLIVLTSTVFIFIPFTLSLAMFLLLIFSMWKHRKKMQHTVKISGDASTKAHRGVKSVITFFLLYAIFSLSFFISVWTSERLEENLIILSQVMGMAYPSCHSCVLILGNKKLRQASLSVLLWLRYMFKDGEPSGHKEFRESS

| pIC50 (Table C, read-out: hT2R14 IC50) | SMILES | further results |
| --- | --- | --- |
| 6.30 | Cc1ccc(S(=O)(=O)N(Cc2ccc(C#N)cc2)CC2CCC(C(=O)O)CC2)cc1 (stereo not drawn) [Example 5-127, 4-((N-(4-cyanobenzyl)-4-methylphenylsulfonamido)methyl) cyclohexanecarboxylic acid] |  |
| 5.90 | COc1ccc(CN(Cc2ccc(F)cc2F)S(=O)(=O)c2ccc(C(=O)O)cc2)cc1 [Example 5-160, 4-(N-(2,4-difluorobenzyl)-N-(4-methoxybenzyl)sulfamoyl)benzoic acid] |  |
|  | COc1cc(OC)c(/C=C2\SC(=S)N(CCC(=O)O)C2=O)c(OC)c1 [Example 6-12, (Z)-3-(4-oxo-2-thioxo-5-(2,4,6-trimethoxybenzylidene)thiazolidin-3-yl)propanoic acid] | pIC50 (Table D, read-out: hT2R14 IC50): 5.03 |
|  | Cn1c(=O)c2c(SCC(=O)NCc3ccccc3)ccnc2n(C)c1=O [Example 6-29, N-benzyl-2-(1,3-dimethyl-2,4-dioxo-1,2,3,4-tetrahydropyrido[2,3-d]pyrimidin-5-ylthio)acetamide] | pIC50 (Table D, read-out: hT2R14 IC50): 6.15 |
|  | CCN(C)C(=O)CSc1nc(C)nc2c1c(=O)n(C)c(=O)n2C [Example 6-22, N-ethyl-N-methyl-2-(2,6,8-trimethyl-5,7-dioxo-5,6,7,8-tetrahydropyrimido[4,5-d]pyrimidin-4-ylthio)acetamide] | pIC50 (Table D, read-out: hT2R14 IC50): 6.06 |
| 5.21 | COc1ccc(CN(CC2CCC(C(=O)O)CC2)C(=S)Nc2ccc(C)c(Cl)c2)cc1 (stereo not drawn) [Example 5-111, 4-((3-(3-chloro-4-methylphenyl)-1-(4-methoxybenzyl)thioureido)methyl) cyclohexanecarboxylic acid] |  |
| 5.27 | COc1ccc(CN(Cc2ccccc2C)S(=O)(=O)c2ccc(C(=O)O)cc2)cc1 [Example 5-129, 4-(N-(4-methoxybenzyl)-N-(2-methylbenzyl)sulfamoyl)benzoic acid] |  |
| 5.54 | COc1ccc2c(c1)C(c1ccccc1)N(S(=O)(=O)c1ccc(C(=O)O)cc1)CC2 (stereo not drawn) [Example 5-163, 4-(7-methoxy-1-phenyl-3,4-dihydroisoquinolin-2(1H)-ylsulfonyl)benzoic acid] |  |
| 6.40 | O=C(O)c1ccc(CN(Cc2ccccc2)S(=O)(=O)c2ccc(Cl)cc2)cc1 [Example 5-120, 4-((N-benzyl-4-chlorophenylsulfonamido)methyl)benzoic acid] |  |
| 5.30 | CCc1ccc(CN(CC2CCC(C(=O)O)CC2)C(=S)Nc2ccccc2C)cc1 (stereo not drawn) [Example 5-113, 4-((1-(4-ethylbenzyl)-3-o-tolylthioureido)methyl) cyclohexanecarboxylic acid] |  |
| 5.55 | CCOC(=O)C1CCC(CN(Cc2ccccc2Cl)S(=O)(=O)c2ccc(C)cc2)CC1 (stereo not drawn) [Example 5-117, ethyl 4-((N-(2-chlorobenzyl)-4-methylphenylsulfonamido)methyl) cyclohexanecarboxylate] |  |
| 5.07 | O=C(O)C1CCC(CN(Cc2ccc(F)cc2)S(=O)(=O)c2cccnc2)CC1 (stereo not drawn) [Example 5-52, 4-((N-(4-fluorobenzyl)pyridine-3-sulfonamido)methyl)cyclohexanecarboxylic acid] |  |
| 5.02 | COc1ccc2c(c1)CCN(S(=O)(=O)c1ccc(C(=O)O)cc1)C2c1ccccc1 (stereo not drawn) [Example 5-162, 4-(6-methoxy-1-phenyl-3,4-dihydroisoquinolin-2(1H)-ylsulfonyl)benzoic acid] |  |
|  | CCOC(=O)N1CCN(C(=O)CSc2nc(CC)nc3c2c(=O)n(C)c(=O)n3C)CC1 [Example 6-27, ethyl 4-(2-(2-ethyl-6,8-dimethyl-5,7-dioxo-5,6,7,8-tetrahydropyrimido[4,5-d]pyrimidin-4-ylthio)acetyl)piperazine-1-carboxylate] | pIC50 (Table D, read-out: hT2R14 IC50): 6.12 |
|  | N#C/C(=C\c1ccc2c(c1)OCO2)C(=O)Nc1nnc(-c2ccccc2)s1 [Example 6-14, (E)-3-(benzo[d][1,3]dioxol-5-yl)-2-cyano-N-(5-phenyl-1,3,4-thiadiazol-2-yl)acrylamide] | pIC50 (Table D, read-out: hT2R14 IC50): 5.54 |
|  | COc1cc(/C=C2\SC(=S)N(CCC(=O)O)C2=O)cc(OC)c1 [Example 6-13, (Z)-3-(5-(3,5-dimethoxybenzylidene)-4-oxo-2-thioxothiazolidin-3-yl)propanoic acid] | pIC50 (Table D, read-out: hT2R14 IC50): 5.27 |
|  | CNS(=O)(=O)c1ccc2[nH]c(=O)c(=O)[nH]c2c1 [Example 6-30, N-methyl-2,3-dioxo-1,2,3,4-tetrahydroquinoxaline-6-sulfonamide] | pIC50 (Table D, read-out: hT2R14 IC50): 5.21 |
|  | Cc1nc(SCC(=O)N2CCCCC2)c2c(=O)n(C)c(=O)n(C)c2n1 [Example 6-24, 1,3,7-trimethyl-5-(2-oxo-2-(piperidin-1-yl)ethylthio)pyrimido[4,5-d]pyrimidine-2,4(1H,3H)-dione] | pIC50 (Table D, read-out: hT2R14 IC50): 6.53 |
| 5.08 | O=C(O)c1ccc(S(=O)(=O)N(Cc2ccccc2)Cc2ccc(F)cc2)cc1 [Example 5-131, 4-(N-benzyl-N-(4-fluorobenzyl)sulfamoyl)benzoic acid] |  |
| 7.04 | COc1ccc(S(=O)(=O)N(Cc2ccc(F)cc2)CC2CCC(C(=O)O)CC2)cc1 (stereo not drawn) [Example 5-123, 4-((N-(4-fluorobenzyl)-4-methoxyphenylsulfonamido)methyl) cyclohexanecarboxylic acid] |  |
|  | CC(C)CN(CC(C)C)S(=O)(=O)c1ccc(C(=O)O)cc1 [Compound 5-9, 4-(N,N-diisobutylsulfamoyl)benzoic acid] | pIC50 (Table B, read-out: hT2R14 IC50): 4.82 |
|  | COc1ccc(CN(Cc2ccccc2)S(=O)(=O)c2ccc(C(=O)O)cc2)cc1OC [Example 5-39, 4-(N-benzyl-N-(3,4-dimethoxybenzyl)sulfamoyl)benzoic acid] | pIC50 (read-out: IC50 on hT2R14 bitter receptor): 6.17 |
|  | Cc1cc(C)c(C#N)c(NS(=O)(=O)c2ccc3c(c2)c(=O)n(C)c(=O)n3C)c1 [Example 6-17, N-(2-cyano-3,5-dimethylphenyl)-1,3-dimethyl-2,4-dioxo-1,2,3,4-tetrahydroquinazoline-6-sulfonamide] | pIC50 (Table D, read-out: hT2R14 IC50): 5.71 |
| 7.44 | COc1cccc(CN(CC2CCC(C(=O)O)CC2)S(=O)(=O)c2ccc(C)cc2)c1 (stereo not drawn) [Example 5-128, 4-((N-(3-methoxybenzyl)-4-methylphenylsulfonamido)methyl) cyclohexanecarboxylic acid] |  |
| 5.45 | COc1ccc2c(c1)-c1ccccc1CN(S(=O)(=O)c1ccc(C(=O)O)cc1)C2 [Example 5-158, 4-(2-methoxy-5H-dibenzo[c,e]azepin-6(7H)-ylsulfonyl)benzoic acid] |  |
|  | Cc1nc2ccc(NS(=O)(=O)c3ccc4c(c3)n(C)c(=O)c(=O)n4C)cc2nc1C [Example 6-19, N-(2,3-dimethylquinoxalin-6-yl)-1,4-dimethyl-2,3-dioxo-1,2,3,4-tetrahydroquinoxaline-6-sulfonamide] | pIC50 (Table D, read-out: hT2R14 IC50): 5.20 |
| 5.62 | COc1ccc(CN(C2CCCc3ccccc32)S(=O)(=O)c2ccc(C(=O)O)cc2)cc1 (stereo not drawn) [Example 5-150, 4-(N-(4-methoxybenzyl)-N-(1,2,3,4-tetrahydronaphthalen-1-yl)sulfamoyl)benzoic acid] |  |

| SMILES | pIC50 (Table C, read-out: hT2R14 IC50) | further results |
| --- | --- | --- |
| COc1cccc(CN(Cc2ccccc2)S(=O)(=O)c2ccc(C(=O)O)cc2)c1 [Example 5-136, 4-(N-benzyl-N-(3-methoxybenzyl)sulfamoyl)benzoic acid] | 5.22 |  |
| COc1ccc(CN(Cc2ccccc2)S(=O)(=O)c2ccc(C(=O)O)cc2)cc1C [Example 5-144, 4-(N-benzyl-N-(4-methoxy-3-methylbenzyl)sulfamoyl)benzoic acid] | 5.70 |  |
| O=C(O)c1ccc(S(=O)(=O)N(Cc2ccccc2)Cc2ccccc2Cl)cc1 [Example 5-141, 4-(N-benzyl-N-(2-chlorobenzyl)sulfamoyl)benzoic acid] | 5.35 |  |
| O=C(O)c1ccc(S(=O)(=O)N(Cc2ccccc2)Cc2ccccc2F)cc1 [Example 5-134, 4-(N-benzyl-N-(2-fluorobenzyl)sulfamoyl)benzoic acid] | 5.21 |  |
| Cc1cccc(CN(Cc2ccccc2)S(=O)(=O)c2ccc(C(=O)O)cc2)c1 [Example 5-135, 4-(N-benzyl-N-(3-methylbenzyl)sulfamoyl)benzoic acid] | 5.64 |  |
| N#Cc1ccc(CN(Cc2ccccc2)S(=O)(=O)c2ccc(C(=O)O)cc2)cc1 [Example 5-146, 4-(N-benzyl-N-(4-cyanobenzyl)sulfamoyl)benzoic acid] | 5.73 |  |
| COc1ccc(CN(C(C)c2ccccc2)S(=O)(=O)c2ccc(C(=O)O)cc2)cc1 (stereo not drawn) [Example 5-149, 4-(N-(4-methoxybenzyl)-N-(1-phenylethyl)sulfamoyl)benzoic acid] | 5.85 |  |
| Cc1ccc(CN(Cc2ccccc2)S(=O)(=O)c2ccc(C(=O)O)cc2)cc1 [Example 5-132, 4-(N-benzyl-N-(4-methylbenzyl)sulfamoyl)benzoic acid] | 5.27 |  |
| O=C(O)c1ccc(S(=O)(=O)N(Cc2ccccc2)Cc2ccc3c(c2)OCO3)cc1 [Example 5-148, 4-(N-(benzo[d][1,3]dioxol-5-ylmethyl)-N-benzylsulfamoyl)benzoic acid] | 5.66 |  |
| COc1ccc(CN(Cc2ccccc2OC)S(=O)(=O)c2ccc(C(=O)O)cc2)cc1 [Example 5-121, 4-(N-(2-methoxybenzyl)-N-(4-methoxybenzyl)sulfamoyl)benzoic acid] | 5.53 |  |
| COc1ccc(CN(Cc2ccccc2Cl)S(=O)(=O)c2ccc(C(=O)O)cc2)cc1 [Example 5-130, 4-(N-(2-chlorobenzyl)-N-(4-methoxybenzyl)sulfamoyl)benzoic acid] | 5.15 |  |
| CSc1ccc(CN(Cc2ccccc2)S(=O)(=O)c2ccc(C(=O)O)cc2)cc1 [Example 5-138, 4-(N-benzyl-N-(4-(methylthio)benzyl)sulfamoyl)benzoic acid] | 5.61 |  |
